Calls of active or inactive are those of the source. No cut-off for these calls is given here.
Assays:
[1] = biological target: T1, Protein deacetylase HDAC6 (Homo sapiens) (UniProt Q9UBN7); assay: Potency index, ratio of test compound residence time to ricolinostat residence time in full length HDAC6-NanoLuc fusion protein (unknown origin) expressed in HeLa cells by NanoBRET assay; format: cell-based
T1 sequence (whole entry): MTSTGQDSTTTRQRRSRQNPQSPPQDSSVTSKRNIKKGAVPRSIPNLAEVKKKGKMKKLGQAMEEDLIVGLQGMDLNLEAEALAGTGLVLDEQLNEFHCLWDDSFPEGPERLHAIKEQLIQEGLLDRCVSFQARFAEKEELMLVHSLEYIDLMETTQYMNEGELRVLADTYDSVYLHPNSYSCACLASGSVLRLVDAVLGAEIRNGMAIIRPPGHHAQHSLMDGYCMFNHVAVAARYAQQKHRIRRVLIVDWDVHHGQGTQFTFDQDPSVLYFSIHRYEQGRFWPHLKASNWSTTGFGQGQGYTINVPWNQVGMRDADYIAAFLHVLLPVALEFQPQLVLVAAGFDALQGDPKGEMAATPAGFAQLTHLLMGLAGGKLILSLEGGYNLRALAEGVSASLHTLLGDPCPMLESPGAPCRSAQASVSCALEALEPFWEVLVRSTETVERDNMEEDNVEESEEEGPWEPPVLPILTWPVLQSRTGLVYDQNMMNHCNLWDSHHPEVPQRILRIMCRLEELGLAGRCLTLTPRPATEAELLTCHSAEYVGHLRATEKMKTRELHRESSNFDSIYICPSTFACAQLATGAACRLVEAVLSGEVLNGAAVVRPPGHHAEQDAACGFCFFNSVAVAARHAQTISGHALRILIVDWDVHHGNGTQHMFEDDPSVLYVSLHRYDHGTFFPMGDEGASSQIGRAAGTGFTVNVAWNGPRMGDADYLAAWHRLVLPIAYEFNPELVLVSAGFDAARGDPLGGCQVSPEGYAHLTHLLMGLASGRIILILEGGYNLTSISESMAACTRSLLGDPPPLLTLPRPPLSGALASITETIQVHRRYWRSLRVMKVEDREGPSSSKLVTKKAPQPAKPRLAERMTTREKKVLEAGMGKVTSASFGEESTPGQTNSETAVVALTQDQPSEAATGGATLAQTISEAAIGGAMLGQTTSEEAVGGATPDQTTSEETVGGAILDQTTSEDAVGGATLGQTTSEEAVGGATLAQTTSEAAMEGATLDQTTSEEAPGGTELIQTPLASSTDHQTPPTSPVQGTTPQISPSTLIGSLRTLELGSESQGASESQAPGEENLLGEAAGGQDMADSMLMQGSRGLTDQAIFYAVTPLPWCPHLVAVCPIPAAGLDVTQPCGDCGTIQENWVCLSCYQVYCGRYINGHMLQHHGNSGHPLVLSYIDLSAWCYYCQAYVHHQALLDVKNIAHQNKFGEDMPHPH

MV4-11 [2] = assay: cells; format: functional, cell-based; details: Homo sapiens, MV4-11, 72 h
MV4-11 [3] = assay: Induction of apoptosis in human MV4-11 cells assessed as early apoptotic cells at 1 uM after 24 hrs by Annexin V/PI staining based flow cytometric analysis (Rvb=2%); format: functional
MV4-11 [4] = assay: Induction of apoptosis in human MV4-11 cells assessed as viable cells at 1 uM after 24 hrs by Annexin V/PI staining based flow cytometric analysis (Rvb=58.28%); format: functional; details: read-out: Activity
[5] = Cytotoxicity against human HD-MB03 cells assessed as inhibition of cell growth incubated for 72 hrs measured by spectrophotometer analysis; format: functional, cell-based; details: HD-MB03, 72 h
Histone deacetylase 1 = Histone deacetylase 1 (Homo sapiens, UniProt Q13547); assay: Inhibition of full length human recombinant HDAC1 expressed in Sf9 baculovirus system using FAM-labeled acetylated peptide as substrate by measuring fluorescence intensity by EMSA method
Chain of Histone deacetylase 1 (Q13547 whole entry): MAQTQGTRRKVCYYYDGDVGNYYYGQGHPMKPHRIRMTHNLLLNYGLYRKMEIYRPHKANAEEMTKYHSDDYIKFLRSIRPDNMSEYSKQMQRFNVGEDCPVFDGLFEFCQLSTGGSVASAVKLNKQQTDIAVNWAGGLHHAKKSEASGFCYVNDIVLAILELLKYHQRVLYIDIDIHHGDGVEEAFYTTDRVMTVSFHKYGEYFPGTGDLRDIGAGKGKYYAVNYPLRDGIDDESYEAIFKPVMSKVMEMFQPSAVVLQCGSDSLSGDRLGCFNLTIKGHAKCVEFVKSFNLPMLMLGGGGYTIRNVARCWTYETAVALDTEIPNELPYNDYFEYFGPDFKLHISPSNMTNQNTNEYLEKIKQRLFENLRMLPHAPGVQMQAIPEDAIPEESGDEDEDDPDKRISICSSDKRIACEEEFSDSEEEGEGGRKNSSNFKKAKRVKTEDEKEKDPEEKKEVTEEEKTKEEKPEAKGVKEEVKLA

[6] = biological target: T1, Protein deacetylase HDAC6 (Homo sapiens); assay: Inhibition of full length human recombinant HDAC6 in human HD-MB03 cells assessed as increase in acetylation of alpha tubulin at 53 nM for 6 hrs by western blotting anlaysis; format: cell-based
[7] = Cytotoxicity against HUVEC cells assessed as inhibition of cell growth incubated for 72 hrs measured by spectrophotometer analysis; format: toxicity, cell-based; details: human
MV4-11 [8] = assay: Induction of apoptosis in human MV4-11 cells assessed as late apoptotic cells at 1 uM after 24 hrs by Annexin V/PI staining based flow cytometric analysis (Rvb=2%); format: functional
MV4-11 [9] = assay: Induction of apoptosis in human MV4-11 cells assessed as viable cells at 0.25 uM after 24 hrs by Annexin V/PI staining based flow cytometric analysis (Rvb=58.28%); format: functional; details: read-out: Activity
[10] = Competitive inhibition of N-terminal His-SUMO tagged zebra fish recombinant HDAC6 catalytic domain 2 transfected with pET28b(+) vector in Escherichia coli BL21 (DE3) RILP cells incubated for 10 mins followed by addition of FITC-M344 measured af ter 10 mins by fluorescence polarization assay; design: species or system Danio rerio
[11] = Stability in human plasma assessed as half life measured upto 60 mins by LC-MS/MS analysis; format: ADME, cell-free
in vitro = details: human, MRC9 cells
MV4-11 [12] = assay: Induction of apoptosis in human MV4-11 cells assessed as late apoptotic cells at 2 uM after 24 hrs by Annexin V/PI staining based flow cytometric analysis (Rvb=2%); format: functional
[13] = Dissociation constant, pKa of compound; format: physicochemical
[14] = Lipophilicity, logP of the compound; format: physicochemical; details: octanol/water
[15] = biological target: T2, Polyamine deacetylase HDAC10 (Homo sapiens, UniProt Q969S8); assay: Inhibition of full length human recombinant HDAC10 expressed in Sf9 baculovirus system using FAM-labeled acetylated peptide as substrate by measuring fluorescence intensity
T2 sequence (Q969S8 whole entry): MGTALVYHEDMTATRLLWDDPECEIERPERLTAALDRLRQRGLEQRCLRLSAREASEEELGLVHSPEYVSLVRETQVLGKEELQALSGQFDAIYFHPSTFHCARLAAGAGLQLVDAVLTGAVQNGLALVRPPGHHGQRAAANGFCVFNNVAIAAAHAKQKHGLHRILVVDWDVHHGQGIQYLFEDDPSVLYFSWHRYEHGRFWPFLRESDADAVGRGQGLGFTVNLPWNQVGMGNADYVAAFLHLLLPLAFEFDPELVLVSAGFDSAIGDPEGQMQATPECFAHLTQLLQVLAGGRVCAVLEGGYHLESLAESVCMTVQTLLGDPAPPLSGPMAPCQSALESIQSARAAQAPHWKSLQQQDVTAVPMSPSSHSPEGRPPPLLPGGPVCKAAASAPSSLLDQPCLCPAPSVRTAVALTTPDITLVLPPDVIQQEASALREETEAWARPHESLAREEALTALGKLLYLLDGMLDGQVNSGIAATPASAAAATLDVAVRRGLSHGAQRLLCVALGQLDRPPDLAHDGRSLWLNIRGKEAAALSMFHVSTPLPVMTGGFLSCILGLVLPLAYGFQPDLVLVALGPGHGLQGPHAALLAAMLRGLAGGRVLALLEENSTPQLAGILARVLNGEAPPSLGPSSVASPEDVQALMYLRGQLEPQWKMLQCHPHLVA

fold change (FC) [1]: 2
IC50 (MV4-11 [2]): 1190 nM
IC50 (Histone deacetylase 1): > 5 µM
inhibition [6]: Active
half-life [11]: 115 min
IC50 at 72 h (in vitro): > 50 µM
pKa [13]: 8.77
logP [14]: 3.41
IC50 [15]: > 5 µM
Structure (SMILES): CC(C)N(Cc1ccc(C(=O)NO)cc1)S(=O)(=O)c1cc(F)c(F)c(F)c1F
Activity (MV4-11 [3]): 3.32%
viability at 1 µM (MV4-11 [4]): 56.3%
IC50 [5]: 130 nM
IC50 at 72 h [7]: 10.1 µM
Activity (MV4-11 [8]): 10.88%
viability at 0.25 µM (MV4-11 [9]): 82%
IC50 [10]: 139 nM
Activity (MV4-11 [12]): 23.4%

Reference: ChEMBL document CHEMBL5154721, “Discovery of HDAC6-Selective Inhibitor NN-390 with in Vitro Efficacy in Group 3 Medulloblastoma” (J Med Chem, 2022)
